Patent US9914730B2, “Azaquinazoline inhibitors of Atypical protein Kinase C” (Ignyta, Inc., priority 2012, dated 2018)

Molecular target: T1, full-length human PKCι (Homo sapiens, UniProt P41743)
T1 construct: Recombinant, full-length human PKCι expressed in Sf21 insect cells is also commercially available; purchased; host or cells: Sf21 insect cells
T1 sequence (P41743 1-596): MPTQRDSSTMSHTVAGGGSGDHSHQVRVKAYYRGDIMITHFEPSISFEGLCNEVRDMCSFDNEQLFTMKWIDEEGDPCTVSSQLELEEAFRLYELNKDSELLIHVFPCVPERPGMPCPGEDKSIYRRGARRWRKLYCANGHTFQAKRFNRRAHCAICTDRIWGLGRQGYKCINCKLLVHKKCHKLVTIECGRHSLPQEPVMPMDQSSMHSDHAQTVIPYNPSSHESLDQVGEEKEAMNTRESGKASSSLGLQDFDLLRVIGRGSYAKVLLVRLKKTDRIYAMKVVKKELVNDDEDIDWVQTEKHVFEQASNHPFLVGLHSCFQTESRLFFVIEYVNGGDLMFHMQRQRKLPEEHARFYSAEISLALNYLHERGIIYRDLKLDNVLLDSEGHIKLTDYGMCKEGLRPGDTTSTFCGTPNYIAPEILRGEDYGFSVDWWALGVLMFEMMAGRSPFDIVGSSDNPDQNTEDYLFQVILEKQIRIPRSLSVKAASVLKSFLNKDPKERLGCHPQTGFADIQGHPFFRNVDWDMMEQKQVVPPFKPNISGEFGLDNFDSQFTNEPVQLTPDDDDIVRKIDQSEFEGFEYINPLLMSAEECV
Assay: PKCι IC50 IMAP assay, full-length PKCι at 150 μM ATP
Assay type: biochemical
Settings: read-out: IC50 in IMAP assay against full length PKCi at 150 μM ATP
Outline: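 Full-length human PKCι from Sf21 cells, typically 15 pM, with 100 nM 5FAM-PKCε pseudosubstrate peptide and 150 μM ATP (5× apparent KM), 60 min at room temperature, 4% DMSO. IMAP fluorescence polarisation read-out; inhibition normalised to no-compound and no-enzyme controls, IC50 from curve fit.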

Compound | IC50 [µM]
COc1cncc(Nc2cc(-c3nc(N4CCNCC4)c4c(OC)cncc4n3)ccn2)c1 [Example 424, [4-(5-Methoxy-4-piperazin-1-yl-pyrido[3,4-d]pyrimidin-2-yl)-pyridin-2-yl]-(5-methoxy-pyridin-3-yl)-amine] | < 0.1
COc1cncc2nc(-c3ccnc(Nc4cc(C#N)ccn4)c3)nc(N3CCC[C@H](O)C3)c12 [Example 426, 2-{4-[4-((S)-3-Hydroxy-piperidin-1-yl)-5-methoxy-pyrido[3,4-d]pyrimidin-2-yl]-pyridin-2-ylamino}-isonicotinonitrile] | 1 to 10
COc1cncc2nc(-c3ccnc(Nc4cc(C#N)ccn4)c3)nc(N3CCC[C@@H](O)C3)c12 [Example 429, 2-{4-[4-((R)-3-Hydroxy-piperidin-1-yl)-5-methoxy-pyrido[3,4-d]pyrimidin-2-yl]-pyridin-2-ylamino}-isonicotinonitrile] | 1 to 10
COc1cncc2nc(-c3ccnc(Nc4cc(F)ccc4F)c3)nc(N3CCNCC3)c12 [Example 440, (2,5-Difluoro-phenyl)-[4-(5-methoxy-4-piperazin-1-yl-pyrido[3,4-d]pyrimidin-2-yl)-pyridin-2-yl]-amine] | < 0.1
COc1cncc2nc(-c3ccnc(Nc4c(F)cc(F)cc4F)c3)nc(N3CCNCC3)c12 [Example 441, [4-(5-Methoxy-4-piperazin-1-yl-pyrido[3,4-d]pyrimidin-2-yl)-pyridin-2-yl]-(2,4,6-trifluoro-phenyl)-amine] | < 0.1
COc1cncc2nc(-c3ccnc(Nc4c(F)cccc4F)c3)nc(N3CCN[C@@H](CO)C3)c12 [Example 442, ((R)-4-{2-[2-(2,6-Difluoro-phenylamino)-pyridin-4-yl]-5-methoxy-pyrido[3,4-d]pyrimidin-4-yl}-piperazin-2-yl)-methanol] | < 0.1
COc1cncc2nc(-c3ccnc(Nc4c(F)ccc(F)c4F)c3)nc(N3CCNCC3)c12 [Example 444, [4-(5-Methoxy-4-piperazin-1-yl-pyrido[3,4-d]pyrimidin-2-yl)-pyridin-2-yl]-(2,3,6-trifluoro-phenyl)-amine] | < 0.1
COc1cncc2nc(-c3ccnc(Nc4cccc(C(F)(F)F)n4)c3)nc(N3CCNCC3)c12 [Example 449, [4-(5-Methoxy-4-piperazin-1-yl-pyrido[3,4-d]pyrimidin-2-yl)-pyridin-2-yl]-(6-trifluoromethyl-pyridin-2-yl)-amine] | < 0.1
COc1cncc2nc(-c3ccnc(Nc4cccnc4F)c3)nc(N3CCNCC3)c12 [Example 450, (2-Fluoro-pyridin-3-yl)-[4-(5-methoxy-4-piperazin-1-yl-pyrido[3,4-d]pyrimidin-2-yl)-pyridin-2-yl]-amine] | < 0.1
COc1cncc2nc(-c3ccnc(Nc4cccc(C(F)(F)F)c4F)c3)nc(N3CCNCC3)c12 [Example 452, (2-Fluoro-3-trifluoromethyl-phenyl)-[4-(5-methoxy-4-piperazin-1-yl-pyrido[3,4-d]pyrimidin-2-yl)-pyridin-2-yl]-amine] | 0.1 to 1
COc1cncc2nc(-c3ccnc(Nc4ccc(F)cc4F)c3)nc(N3CCNCC3)c12 [Example 453, (2,4-Difluoro-phenyl)-[4-(5-methoxy-4-piperazin-1-yl-pyrido[3,4-d]pyrimidin-2-yl)-pyridin-2-yl]-amine] | < 0.1
COc1cncc2nc(-c3ccnc(Nc4ccc(F)c(F)c4F)c3)nc(N3CCNCC3)c12 [Example 454, [4-(5-Methoxy-4-piperazin-1-yl-pyrido[3,4-d]pyrimidin-2-yl)-pyridin-2-yl]-(2,3,4-trifluoro-phenyl)-amine] | 0.1 to 1
COc1cncc2nc(-c3ccnc(Nc4cc(F)c(F)cc4F)c3)nc(N3CCNCC3)c12 [Example 455, [4-(5-Methoxy-4-piperazin-1-yl-pyrido[3,4-d]pyrimidin-2-yl)-pyridin-2-yl]-(2,4,5-trifluoro-phenyl)-amine] | 0.1 to 1

Continued, values first:

IC50 [µM] | Compound
< 0.1 | COc1cncc2nc(-c3ccnc(Nc4c(C)cccc4F)c3)nc(N3CCNCC3)c12 [Example 422, (2-Fluoro-6-methyl-phenyl)-[4-(5-methoxy-4-piperazin-1-yl-pyrido[3,4-d]pyrimidin-2-yl)-pyridin-2-yl]-amine]
1 to 10 | COc1cncc2nc(-c3ccnc(Nc4ccccc4)c3)nc(N3CCC[C@H](O)C3)c12 [Example 425, (S)-1-[5-Methoxy-2-(2-phenylamino-pyridin-4-yl)-pyrido[3,4-d]pyrimidin-4-yl]-piperidin-3-ol]
1 to 10 | COc1cncc2nc(-c3ccnc(Nc4ccccc4)c3)nc(N3CCC(O)CC3)c12 [Example 427, 1-[5-Methoxy-2-(2-phenylamino-pyridin-4-yl)-pyrido[3,4-d]pyrimidin-4-yl]-piperidin-4-ol]
1 to 10 | COc1cncc2nc(-c3ccnc(Nc4ccccc4)c3)nc(N3CCC[C@@H](O)C3)c12 [Example 428, (R)-1-[5-Methoxy-2-(2-phenylamino-pyridin-4-yl)-pyrido[3,4-d]pyrimidin-4-yl]-piperidin-3-ol]
0.1 to 1 | COc1cncc2nc(-c3ccnc(Nc4ccccc4)c3)nc(NC[C@@H]3CCCN3)c12 [Example 430, [5-Methoxy-2-(2-phenylamino-pyridin-4-yl)-pyrido[3,4-d]pyrimidin-4-yl]-(S)-1-pyrrolidin-2-ylmethyl-amine]
0.1 to 1 | COc1cncc2nc(-c3ccnc(Nc4ccccc4)c3)nc(NC[C@H]3CCCN3)c12 [Example 431, [5-Methoxy-2-(2-phenylamino-pyridin-4-yl)-pyrido[3,4-d]pyrimidin-4-yl]-(R)-1-pyrrolidin-2-ylmethyl-amine]
0.1 to 1 | COc1cncc2nc(-c3ccnc(Nc4ccccc4)c3)nc(N3CCN(CCO)CC3)c12 [Example 432, 2-{4-[5-Methoxy-2-(2-phenylamino-pyridin-4-yl)-pyrido[3,4-d]pyrimidin-4-yl]-piperazin-1-yl}-ethanol]
1 to 10 | COc1cncc2nc(-c3ccnc(Nc4ccccc4)c3)nc(N3CC(CO)C3)c12 [Example 433, {1-[5-Methoxy-2-(2-phenylamino-pyridin-4-yl)-pyrido[3,4-d]pyrimidin-4-yl]-azetidin-3-yl}-methanol]
< 0.1 | COc1cncc2nc(-c3ccnc(Nc4ccccc4)c3)nc(N3CCN[C@@H](CO)C3)c12 [Example 434, {(R)-4-[5-Methoxy-2-(2-phenylamino-pyridin-4-yl)-pyrido[3,4-d]pyrimidin-4-yl]-piperazin-2-yl}-methanol]
0.1 to 1 | COc1cncc2nc(-c3ccnc(Nc4ccccc4)c3)nc(N3CCN4C(=O)OC[C@H]4C3)c12 [Example 435, (R)-7-[5-Methoxy-2-(2-phenylamino-pyridin-4-yl)-pyrido[3,4-d]pyrimidin-4-yl]-hexahydro-oxazolo[3,4-a]pyrazin-3-one]
1 to 10 | COc1cncc2nc(-c3ccnc(Nc4ccccc4)c3)nc(N3CCNC(=O)C3)c12 [Example 438, 4-[5-Methoxy-2-(2-phenylamino-pyridin-4-yl)-pyrido[3,4-d]pyrimidin-4-yl]-piperazin-2-one]
< 0.1 | COc1cncc2nc(-c3ccnc(Nc4cccc(F)c4F)c3)nc(N3CCNCC3)c12 [Example 439, (2,3-Difluoro-phenyl)-[4-(5-methoxy-4-piperazin-1-yl-pyrido[3,4-d]pyrimidin-2-yl)-pyridin-2-yl]-amine]
1 to 10 | COc1cncc2nc(-c3ccnc(Nc4ccccc4)c3)nc(N3CCC(O)C(CO)C3)c12 (stereo not shown) [Example 443, 3-Hydroxymethyl-1-[5-methoxy-2-(2-phenylamino-pyridin-4-yl)-pyrido[3,4-d]pyrimidin-4-yl]-piperidin-4-ol]
0.1 to 1 | COc1cncc2nc(-c3ccnc(Nc4ccccc4C(F)(F)F)c3)nc(N3CCNCC3)c12 [Example 445, [4-(5-Methoxy-4-piperazin-1-yl-pyrido[3,4-d]pyrimidin-2-yl)-pyridin-2-yl]-(2-trifluoromethyl-phenyl)-amine]
0.1 to 1 | COc1cncc2nc(-c3ccnc(Nc4cccc(C(F)(F)F)c4)c3)nc(N3CCNCC3)c12 [Example 446, [4-(5-Methoxy-4-piperazin-1-yl-pyrido[3,4-d]pyrimidin-2-yl)-pyridin-2-yl]-(3-trifluoromethyl-phenyl)-amine]
< 0.1 | COc1cncc2nc(-c3ccnc(Nc4cccc(F)n4)c3)nc(N3CCNCC3)c12 [Example 447, (6-Fluoro-pyridin-2-yl)-[4-(5-methoxy-4-piperazin-1-yl-pyrido[3,4-d]pyrimidin-2-yl)-pyridin-2-yl]-amine]
< 0.1 | COc1cncc2nc(-c3ccnc(Nc4cccc(C)c4F)c3)nc(N3CCNCC3)c12 [Example 451, (2-Fluoro-3-methyl-phenyl)-[4-(5-methoxy-4-piperazin-1-yl-pyrido[3,4-d]pyrimidin-2-yl)-pyridin-2-yl]-amine]
1 to 10 | COc1cncc2nc(-c3ccnc(Nc4ccccc4)c3)nc(NCCC(N)=O)c12 [Example 458, 3-[5-Methoxy-2-(2-phenylamino-pyridin-4-yl)-pyrido[3,4-d]pyrimidin-4-ylamino]-propionamide]
